# Results published in the RepoRT retention time repository (doi:10.1007/s11356-017-9929-x).
# Test: RP, GL Sciences Inertsil ODS-4, 150 × 2.1 mm, 3 µm, 40 °C, 0.3 mL/min, estimated dead time 1.1 min; A: water + 5 mM ammonium acetate; B: methanol + 5 mM ammonium acetate; gradient (min/%B) 0/5 30/95 50/95
# Conditions: stereoisomer not certain
row,SMILES,LC retention time
1,CC(=O)CCCCn1c(=O)c2c(ncn2C)n(C)c1=O,17.4 min
2,Cc1ccc(C(=O)C(C)CN2CCCCC2)cc1 (stereo not drawn),23.4 min
3,CC1=CC(O)CC(=O)Cc2nc(co2)C(=O)N2CCC=C2C(=O)OC(C(C)C)C(C)C=CC(=O)NCC=C1 (stereo not drawn),24.4 min
4,[2H]c1c([2H])c([2H])c2[nH]c(NC(=O)OC)nc2c1[2H],17.1 min
5,OCCN(CCO)c1nc(N2CCCCC2)c2nc(N(CCO)CCO)nc(N3CCCCC3)c2n1,28.4 min
6,Cc1nn(C)c(Oc2ccccc2)c1C=NOCc1ccc(C(=O)OC(C)(C)C)cc1,33.5 min
7,NC1=NCC2c3ccccc3Cc3ccccc3N12 (stereo not drawn),20.1 min
8,CCOC(=O)NCCOc1ccc(Oc2ccccc2)cc1,28.8 min
9,CSC1=NC(C)(c2ccccc2)C(=O)N1Nc1ccccc1 (stereo not drawn),26.3 min
10,CNC(=O)N(C)c1nc2ccccc2s1,23.8 min
11,CNC(=O)C(=NOC)c1ccccc1Oc1ccccc1,24.6 min
12,C#CC1(OC(C)=O)CCC2C3CCC4=CC(=NO)CCC4C3CCC21CC (stereo not drawn),30.3 min
13,Cc1ccc(NC(=O)NC(C)(C)c2ccccc2)cc1,26.7 min
14,Oc1ccc2nc(-c3cscn3)[nH]c2c1,16.1 min
15,Cc1cc(C)cc(C(=O)N(NC(=O)c2ccc3c(c2C)CCCO3)C(C)(C)C)c1,27.9 min
16,COC(=O)c1ccccc1S(=O)(=O)NC(=O)N(C)c1nc(C)nc(OC)n1,16.9 min
17,CCCCc1c(C)nc(N(C)C)[nH]c1=O,23.4 min
18,Cc1cc(=O)n(-c2ccccc2)n1C,15.4 min
19,CC(C)NCC(O)c1ccc(NS(C)(=O)=O)cc1 (stereo not drawn),9.08 min
20,CCC(C(=O)O)C1CCC(C)C(C(C)C(O)C(C)C(=O)C(CC)C2OC3(C=CC(O)C4(CCC(C)(C5CCC(O)(CC)C(C)O5)O4)O3)C(C)CC2C)O1 (stereo not drawn),35.5 min
21,CCC1CCCC(OC2CCC(N(C)C)C(C)O2)C(C)C(=O)C2=CC3C(C=CC4CC(OC5OC(C)C(OC)C(OC)C5OC)CC43)C2CC(=O)O1 (stereo not drawn),34.5 min
22,Cc1ccnc(NS(=O)(=O)c2ccc(N)cc2)n1,11.6 min
23,Cc1cccc2sc3nncn3c12,18.9 min
24,COc1cc(C)c(Cc2cnc(N)nc2N)cc1OC,17.6 min

row,SMILES,LC retention time
1,[2H]C([2H])([2H])N=C(NC#N)NCCSCc1nc[nH]c1C,13.3 min
2,CC(C)C1(C)N=C(c2nc3ccccc3cc2C(=O)O)NC1=O (stereo not drawn),14.7 min
3,CCC1OC(=O)C(C)C(OC2CC(C)(OC)C(O)C(C)O2)C(C)C(OC2OC(C)CC(N(C)C)C2O)C(C)(OC)CC(C)C(=O)C(C)C(O)C1(C)O (stereo not drawn),27.2 min
4,COc1cc(OC)nc(NC(=O)NS(=O)(=O)Nc2ccccc2C(=O)C2CC2)n1,23.6 min
5,CCOC(=O)CCN(SN(C)C(=O)Oc1cccc2c1OC(C)(C)C2)C(C)C,31.1 min
6,NC(=O)N1c2ccccc2C=Cc2ccccc21,21.9 min
7,Cc1cc(C2CC2)nc(Nc2ccccc2)n1,29.8 min
8,[2H]C([2H])([2H])NC(=O)ON=C(C)SC,11.9 min
9,CON=C(C)c1cccc(Oc2nc(OC)cc(OC)n2)c1C(=O)OC,26.5 min
10,CC(C)NCC(O)COc1ccc(COCCOC(C)C)cc1 (stereo not drawn),20 min
11,CC1CCCCC1NC(=O)Nc1ccccc1 (stereo not drawn),25.6 min
12,CN1C2CC(OC(=O)C(CO)c3ccccc3)CC1C1OC12 (stereo not drawn),16.4 min
13,Cc1nnc(NS(=O)(=O)c2ccc(N)cc2)s1,9.03 min
14,CC(C)NCC(O)COc1cccc2ccccc12 (stereo not drawn),21.8 min
15,CC(C)(C)NCC(O)c1ccc(O)c(CO)c1 (stereo not drawn),9.3 min
16,CNC(=C[N+](=O)[O-])NCCSCc1ccc(CN(C)C)o1,12.5 min
17,OC(CCCN1CCCCC1)(c1ccccc1)c1ccccc1,23.2 min
18,COc1cc(C)nc(-n2nc(C)cc2OC)n1,21.3 min
19,COC(=O)c1ccccc1S(=O)(=O)NC(=O)Nc1nc(C)nc(OC)n1,13.9 min
20,CNC(=O)Oc1cccc2c1OC(C)(C)C2,21.4 min
21,CC12CCC(=O)C=C1CCC1C2CCC2(C)C(O)CCC12 (stereo not drawn),26.6 min
22,COP(=S)(OC)Oc1ccc(S(C)=O)c(C)c1 (stereo not drawn),22.2 min
23,COC(=O)c1ccccc1CS(=O)(=O)NC(=O)Nc1nc(OC)cc(OC)n1,22.1 min
24,Cc1nc(N(C)C)nc(OC(=O)N(C)C)c1C,23.4 min
